The record followed here is patent publication US9452997B2, “Piperidine and piperazine derivatives as autotaxin inhibitors” (Merck Patent GmbH, priority 2009, dated 2016).

The test has as its target T1, Recombinant autotaxin (Homo sapiens, UniProt Q13822).
T1 construct: made in house; host or cells: Hi5 insect cells (baculovirus)
Nature of the test: Autotaxin assay (Amplex Red, LPC substrate). The format is biochemical. To be noted: for IC50: recombinant autotaxin, LPC substrate, Amplex Red detection, values given as upper bounds; for % CTRL (1E−05): % of control at 1E−05 (compound concentration), uninhibited control = 100%. In a few lines: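 Recombinant autotaxin (Hi5 baculovirus, 16 ng) pre-incubated with compound 30 min at 22° C, then reacted with 75 μM egg LPC for 90 min at 37° C. Choline released is coupled to H2O2 and Amplex Red fluorescence (ex 485/em 612 nm). IC50 from ten 1:3 dilutions from 30 μM, duplicates, normalised to 500 μM C14 LPA.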

The IC50 is the point on the concentration scale where inhibition reaches its midpoint. `O=C(OCc1ccc(C(F)(F)F)cc1F)N1CCC(N2CCN(C(=O)c3ccc4[nH]nnc4c3)CC2)CC1` [Compound 73, 4-[4-(1H-Benzotriazole-5-carbonyl)-piperazin-1-yl]-piperidine-1-carboxylic acid 2-fluoro-4-trifluoromethyl-benzyl ester]: the IC50 was < 1 µM. Same read-out and setting: in the case of `O=C(OCc1cc(C(F)(F)F)ccc1F)N1CCC(N2CCN(C(=O)c3ccc4[nH]nnc4c3)CC2)CC1` [Compound 74, 4-[4-(1H-Benzotriazole-5-carbonyl)-piperazin-1-yl]-piperidine-1-carboxylic acid 2-fluoro-5-trifluoromethyl-benzyl ester] it was < 10 µM. The same measure, in the same setting: to `O=C(OCc1cc(F)cc(C(F)(F)F)c1)N1CCC(N2CCN(C(=O)c3ccc4[nH]nnc4c3)CC2)CC1` [Compound 75, 4-[4-(1H-Benzotriazole-5-carbonyl)-piperazin-1-yl]-piperidine-1-carboxylic acid 3-fluoro-5-trifluoromethyl-benzyl ester] belongs < 1 µM; to `O=C(OCc1ccc(OC(F)(F)F)cc1)N1CCC(N2CCN(C(=O)c3ccc4[nH]nnc4c3)CC2)CC1` [Compound 76, 4-[4-(1H-Benzotriazole-5-carbonyl)-piperazin-1-yl]-piperidine-1-carboxylic acid 4-trifluoromethoxy-benzyl ester], < 1 µM. Still for that read-out and setting: in the case of `O=C(OCc1cc(Cl)cc(C(F)(F)F)c1)N1CCC(N2CCN(C(=O)c3ccc4[nH]nnc4c3)CC2)CC1` [Compound 77, 4-[4-(1H-Benzotriazole-5-carbonyl)-piperazin-1-yl]-piperidine-1-carboxylic acid 3-chloro-5-trifluoromethyl-benzyl ester] it was < 1 µM. Take `O=C(OCc1ccc(F)c(Cl)c1)N1CCC(N2CCN(C(=O)c3ccc4[nH]nnc4c3)CC2)CC1` [Compound 78, 4-[4-(1H-Benzotriazole-5-carbonyl)-piperazin-1-yl]-piperidine-1-carboxylic acid 3-chloro-4-fluoro-benzyl ester]: the IC50 is < 1 µM. Same read-out and setting: to `O=C(OCc1cc(F)c(F)c(F)c1)N1CCC(N2CCN(C(=O)c3ccc4[nH]nnc4c3)CC2)CC1` [Compound 79, 4-[4-(1H-Benzotriazole-5-carbonyl)-piperazin-1-yl]-piperidine-1-carboxylic acid 3,4,5-trifluoro-benzyl ester] belongs < 1 µM. In the case of `O=C(OCc1ccc(Br)cc1)N1CCC(N2CCN(C(=O)c3ccc4[nH]nnc4c3)CC2)CC1` [Compound 80, 4-[4-(1H-Benzotriazole-5-carbonyl)-piperazin-1-yl]-piperidine-1-carboxylic acid 4-bromo-benzyl ester], the IC50 was < 1 µM.

With `O=C(CCc1ccc(Cl)cc1Cl)N1CCC(N2CCN(C(=O)c3ccc4[nH]nnc4c3)CC2)CC1` [Compound 82, 1-{4-[4-(1H-Benzotriazole-5-carbonyl)-piperazin-1-yl]-piperidin-1-yl}-3-(2,4-dichloro-phenyl)-propan-1-one], the IC50 was < 10 µM.

As to `O=C(/C=C/c1ccc(Br)cc1F)N1CCC(N2CCN(C(=O)c3ccc4[nH]nnc4c3)CC2)CC1` [Compound 83, (E)-1-{4-[4-(1H-Benzotriazole-5-carbonyl)-piperazin-1-yl]-piperidin-1-yl}-3-(4-bromo-2-fluoro-phenyl)-propenone], the IC50 was < 1 µM. Same read-out and setting: to `CC(C)c1ccc(CCC(=O)N2CCC(N3CCN(C(=O)c4ccc5[nH]nnc5c4)CC3)CC2)cc1` [Compound 84, 1-{4-[4-(1H-Benzotriazole-5-carbonyl)-piperazin-1-yl]-piperidin-1-yl}-3-(4-isopropyl-phenyl)-propan-1-one] belongs < 1 µM; to `O=C(OCc1ccc(Cl)c(Cl)c1)N1CCC(N2CCN(C(=O)c3ccc4[nH]nnc4c3)CC2)CC1` [Compound 85, 4-[4-(1H-Benzotriazole-5-carbonyl)-piperazin-1-yl]-piperidine-1-carboxylic acid 3,4-dichloro-benzyl ester], < 1 µM; to `O=C(OCc1ccc(SC(F)(F)F)cc1)N1CCC(N2CCN(C(=O)c3ccc4[nH]nnc4c3)CC2)CC1` [Compound 86, 4-[4-(1H-Benzotriazole-5-carbonyl)-piperazin-1-yl]-piperidine-1-carboxylic acid 4-trifluoromethylsulfanyl-benzyl ester], < 1 µM. On the same count and under the same terms, in the case of `CC(C)c1ccc(COC(=O)N2CCC(N3CCN(C(=O)c4ccc5[nH]nnc5c4)CC3)CC2)cc1` [Compound 87, 4-[4-(1H-Benzotriazole-5-carbonyl)-piperazin-1-yl]-piperidine-1-carboxylic acid 4-isopropyl-benzyl ester] it was < 1 µM. As for `CS(=O)(=O)c1ccc(CCC(=O)N2CCC(N3CCN(C(=O)c4ccc5[nH]nnc5c4)CC3)CC2)cc1` [Compound 88, 1-{4-[4-(1H-Benzotriazole-5-carbonyl)-piperazin-1-yl]-piperidin-1-yl}-3-(4-methanesulfonyl-phenyl)-propan-1-one], the “% CTRL (1E−05)” value was found to be 89%. Consider `N[C@@H](Cc1c[nH]cn1)C(=O)N1CCN(C2CCN(C(=O)OCc3ccc(C(F)(F)F)cc3)CC2)CC1` [Compound 89, 4-{4-[(S)-2-Amino-3-(1H-imidazol-4-yl)-propionyl]-piperazin-1-yl}-piperidine-1-carboxylic acid 4-trifluoromethyl-benzyl ester], for which the IC50 is < 30 µM. The same measure, in the same setting: to `O=C(/C=C/c1cc(Cl)cc(Cl)c1)N1CCC(N2CCN(C(=O)c3ccc4[nH]nnc4c3)CC2)CC1` [Compound 90, (E)-1-{4-[4-(1H-Benzotriazole-5-carbonyl)-piperazin-1-yl]-piperidin-1-yl}-3-(3,5-dichloro-phenyl)-propenone] belongs < 1 µM. With `O=C(c1cc(Cl)c(F)c(Cl)c1)N1CCC(N2CCN(C(=O)c3ccc4[nH]nnc4c3)CC2)CC1` [Compound 91, (1H-Benzotriazol-5-yl)-{4-[1-(3,5-dichloro-4-fluoro-benzoyl)-piperidin-4-yl]-piperazin-1-yl}-methanone], the “% CTRL (1E−05)” value turned out to be 66%. With `O=C(OCc1ccc(C(F)(F)F)c(Cl)c1)N1CCC(N2CCN(C(=O)c3ccc4[nH]nnc4c3)CC2)CC1` [Compound 92, 4-[4-(1H-Benzotriazole-5-carbonyl)-piperazin-1-yl]-piperidine-1-carboxylic acid 3-chloro-4-trifluoromethyl-benzyl ester], the IC50 is < 1 µM. Same read-out and setting: to `O=C(OCc1cc(Cl)c(F)c(Cl)c1)N1CCC(N2CCN(C(=O)c3ccc4[nH]nnc4c3)CC2)CC1` [Compound 93, 4-[4-(1H-Benzotriazole-5-carbonyl)-piperazin-1-yl]-piperidine-1-carboxylic acid 3,5-dichloro-4-fluoro-benzyl ester] belongs < 1 µM. Regarding `N#Cc1ccc(CCC(=O)N2CCC(N3CCN(C(=O)c4ccc5[nH]nnc5c4)CC3)CC2)cc1` [Compound 94, 4-(3-{4-[4-(1H-Benzotriazole-5-carbonyl)-piperazin-1-yl]-piperidin-1-yl}-3-oxo-propyl)-benzonitrile], the “% CTRL (1E−05)” value came out at 77%.

Take `O=C(OCc1cc(Cl)cc(C(F)(F)F)c1)N1CCN(C2CCN(C(=O)c3ccc4[nH]nnc4c3)CC2)CC1` [Compound 95, 4-[1-(1H-Benzotriazole-5-carbonyl)-piperidin-4-yl]-piperazine-1-carboxylic acid 3-chloro-5-trifluoromethyl-benzyl ester]: the IC50 was < 1 µM. Still for that read-out and setting: to `O=C(OCc1ccc(C(F)(F)F)c(Cl)c1)N1CCN(C2CCN(C(=O)c3ccc4[nH]nnc4c3)CC2)CC1` [Compound 96, 4-[1-(1H-Benzotriazole-5-carbonyl)-piperidin-4-yl]-piperazine-1-carboxylic acid 3-chloro-4-trifluoromethyl-benzyl ester] belongs < 1 µM; to `O=C(OCc1cc(Cl)c(F)c(Cl)c1)N1CCN(C2CCN(C(=O)c3ccc4[nH]nnc4c3)CC2)CC1` [Compound 97, 4-[1-(1H-Benzotriazole-5-carbonyl)-piperidin-4-yl]-piperazine-1-carboxylic acid 3,5-dichloro-4-fluoro-benzyl ester], < 1 µM; to `Cc1c(Br)cc(COC(=O)N2CCN(C3CCN(C(=O)c4ccc5[nH]nnc5c4)CC3)CC2)cc1Br` [Compound 98, 4-[1-(1H-Benzotriazole-5-carbonyl)-piperidin-4-yl]-piperazine-1-carboxylic acid 3,5-dibromo-4-methyl-benzyl ester], < 1 µM. With `O=C(OCc1cc(Cl)cc(C(F)(F)F)c1F)N1CCN(C2CCN(C(=O)c3ccc4[nH]nnc4c3)CC2)CC1` [Compound 99, 4-[1-(1H-Benzotriazole-5-carbonyl)-piperidin-4-yl]-piperazine-1-carboxylic acid 5-chloro-2-fluoro-3-trifluoromethyl-benzyl ester], the IC50 was < 1 µM. Same read-out and setting: in the case of `O=C(OCc1ccc(F)c(C(F)(F)F)c1)N1CCN(C2CCN(C(=O)c3ccc4[nH]nnc4c3)CC2)CC1` [Compound 100, 4-[1-(1H-Benzotriazole-5-carbonyl)-piperidin-4-yl]-piperazine-1-carboxylic acid 4-fluoro-3-trifluoromethyl-benzyl ester] it was < 1 µM. The same measure, in the same setting: in the case of `O=C(OCc1ccc(OC(F)(F)F)c(Cl)c1)N1CCN(C2CCN(C(=O)c3ccc4[nH]nnc4c3)CC2)CC1` [Compound 101, 4-[1-(1H-Benzotriazole-5-carbonyl)-piperidin-4-yl]-piperazine-1-carboxylic acid 3-chloro-4-trifluoromethoxy-benzyl ester] it was < 1 µM. For the compound `O=C(Cc1ccc(C(F)(F)F)c(F)c1)N1CCN(C2CCN(C(=O)c3ccc4[nH]nnc4c3)CC2)CC1` [Compound 102, 1-{4-[1-(1H-Benzotriazole-5-carbonyl)-piperidin-4-yl]-piperazin-1-yl}-2-(3-fluoro-4-trifluoromethyl-phenyl)-ethanone], the “% CTRL (1E−05)” value was 24%.
